From ChEMBL document CHEMBL1201861, “Genomics of Drug Sensitity in Cancer screening data, Wellcome Trust Sanger Institute”

Experiments:
Test in all cases: cells
ES3 = type: functional, cell-based, Homo sapiens; conditions: Homo sapiens, ES3;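 note: growth inhibition of ES3 cells, read out with a cell viability assay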
Description: SANGER: Inhibition of human ES3 cell growth in a cell viability assay.

SW837 = type: functional, cell-based, Homo sapiens; conditions: Homo sapiens, SW837;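 note: growth inhibition of SW837 cells, determined with a cell viability assay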
Description: SANGER: Inhibition of human SW837 cell growth in a cell viability assay.

NMC-G1 = type: functional, cell-based, Homo sapiens; conditions: Homo sapiens, NMC-G1;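 note: growth inhibition of the NMC-G1 cell line, measured with a cell viability read-out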
Description: SANGER: Inhibition of human NMC-G1 cell growth in a cell viability assay.

MFE-280 = type: functional, cell-based, Homo sapiens; conditions: Homo sapiens, MFE-280;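 note: growth inhibition of MFE-280 cells, determined with a cell viability readout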
Description: SANGER: Inhibition of human MFE-280 cell growth in a cell viability assay.

ALL-PO = type: functional, cell-based; conditions: Homo sapiens;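 note: growth inhibition of ALL-PO cells, read out by a cell viability assay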
Description: SANGER: Inhibition of human ALL-PO cell growth in a cell viability assay.

SW1573 = type: functional, cell-based, Homo sapiens; conditions: Homo sapiens, SW1573;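 note: growth inhibition of SW1573 cells, read out with a cell viability assay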
Description: SANGER: Inhibition of human SW1573 cell growth in a cell viability assay.

YKG-1 = type: functional, cell-based, Homo sapiens; conditions: Homo sapiens, YKG-1;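 note: cell growth inhibition, read out with a viability assay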
Description: SANGER: Inhibition of human YKG-1 cell growth in a cell viability assay.

EGI-1 = type: functional, cell-based, Homo sapiens; conditions: Homo sapiens, EGI-1;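 note: cell viability readout used to gauge growth inhibition of EGI-1 cells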
Description: SANGER: Inhibition of human EGI-1 cell growth in a cell viability assay.

KM-H2 = type: functional, cell-based; conditions: Homo sapiens;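 note: growth inhibition of KM-H2 cells, read out by a cell viability assay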
Description: SANGER: Inhibition of human KM-H2 cell growth in a cell viability assay.

ES1 = type: functional, cell-based, Homo sapiens; conditions: Homo sapiens, ES1
Description: SANGER: Inhibition of human ES1 cell growth in a cell viability assay.

SF-268 = type: functional, cell-based, Homo sapiens; conditions: Homo sapiens, SF-268;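 note: growth inhibition of SF-268 cells determined with a cell viability assay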
Description: SANGER: Inhibition of human SF268 cell growth in a cell viability assay.

SW982 = type: functional, cell-based; conditions: Homo sapiens;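 note: growth inhibition of SW982 cells, read out with a cell viability assay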
Description: SANGER: Inhibition of human SW982 cell growth in a cell viability assay.

U-251 = type: functional, cell-based, Homo sapiens; conditions: Homo sapiens, U-251;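 note: growth inhibition of human U-251 cells, read out through a cell viability assay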
Description: SANGER: Inhibition of human U251 cell growth in a cell viability assay.

LS-513 = type: functional, cell-based, Homo sapiens; conditions: Homo sapiens, LS-513
Description: SANGER: Inhibition of human LS-513 cell growth in a cell viability assay.

P30-OHK = type: functional, cell-based; conditions: Homo sapiens;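 note: growth inhibition of the P30-OHK cell line, read out with a cell viability assay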
Description: SANGER: Inhibition of human P30-OHK cell growth in a cell viability assay.

SW1417 = type: functional, cell-based, Homo sapiens; conditions: Homo sapiens, SW1417;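 note: growth inhibition of human SW1417 cells, read out with a cell viability assay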
Description: SANGER: Inhibition of human SW1417 cell growth in a cell viability assay.

PSN1 = type: functional, cell-based, Homo sapiens; conditions: Homo sapiens, PSN1;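 note: suppression of growth of human PSN1 cells, read out by a cell viability assay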
Description: SANGER: Inhibition of human PSN1 cell growth in a cell viability assay.

SF-295 = type: functional, cell-based, Homo sapiens; conditions: Homo sapiens, SF-295; read-out: IC50;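 note: growth inhibition of SF-295 cells, read out with a cell viability assay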
Description: SANGER: Inhibition of human SF295 cell growth in a cell viability assay.

KYSE-140 = type: functional, cell-based, Homo sapiens; conditions: Homo sapiens, KYSE-140;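 note: cell viability assay measuring growth inhibition in human KYSE-140 cells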
Description: SANGER: Inhibition of human KYSE-140 cell growth in a cell viability assay.

KE-37 = type: functional, cell-based; conditions: Homo sapiens;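 note: growth inhibition of KE-37 cells, read out with a cell viability assay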
Description: SANGER: Inhibition of human KE-37 cell growth in a cell viability assay.

AM-38 = type: functional, cell-based, Homo sapiens; conditions: Homo sapiens, AM-38;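 note: growth inhibition of AM-38 cells of human origin, read out by a cell viability assay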
Description: SANGER: Inhibition of human AM-38 cell growth in a cell viability assay.

CAL-51 = type: functional, cell-based, Homo sapiens; conditions: Homo sapiens, CAL-51;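 note: human CAL-51 cell line, growth inhibition read out via a cell viability assay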
Description: SANGER: Inhibition of human CAL-51 cell growth in a cell viability assay.

EW-18 = type: functional, cell-based; conditions: Homo sapiens;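 note: growth inhibition of EW-18 cells, read out by a cell viability assay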
Description: SANGER: Inhibition of human EW-18 cell growth in a cell viability assay.

OVCAR-3 = type: functional, cell-based, Homo sapiens; conditions: Homo sapiens, OVCAR-3;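 note: growth inhibition of human OVCAR-3 cells, determined by a cell viability assay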
Description: SANGER: Inhibition of human OVCAR-3 cell growth in a cell viability assay.

CAL-39 = type: functional, cell-based, Homo sapiens; conditions: Homo sapiens, CAL-39;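 note: cell viability assay measuring growth inhibition of CAL-39 cells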
Description: SANGER: Inhibition of human CAL-39 cell growth in a cell viability assay.

NCI-H441 = type: functional, cell-based; conditions: Homo sapiens;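 note: growth inhibition of NCI-H441 cells, read out with a cell viability assay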
Description: SANGER: Inhibition of human NCI-H441 cell growth in a cell viability assay.

U-87 MG = type: functional, cell-based, U-87MG ATCC; conditions: Homo sapiens;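 note: growth inhibition of the cells measured with a viability assay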
Description: SANGER: Inhibition of human U-87-MG cell growth in a cell viability assay.

RPMI-8226 = type: functional, cell-based; conditions: Homo sapiens
Description: SANGER: Inhibition of human RPMI-8226 cell growth in a cell viability assay.

MDA-MB-453 = type: functional, cell-based, Homo sapiens; conditions: Homo sapiens, MDA-MB-453
Description: SANGER: Inhibition of human MDA-MB-453 cell growth in a cell viability assay.

NCI-H209 = type: functional, cell-based; conditions: Homo sapiens;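 note: growth inhibition of human NCI-H209 cells, measured by a cell viability assay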
Description: SANGER: Inhibition of human NCI-H209 cell growth in a cell viability assay.

JAR = type: functional, cell-based, Homo sapiens; conditions: Homo sapiens, JAR;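 note: growth inhibition of human JAR cells determined with a cell viability assay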
Description: SANGER: Inhibition of human JAR cell growth in a cell viability assay.

HT1197 = type: functional, cell-based, Homo sapiens, HT-1197; conditions: Homo sapiens, HT1197
Description: SANGER: Inhibition of human HT-1197 cell growth in a cell viability assay.

SW 954 = type: functional, cell-based, Homo sapiens; conditions: Homo sapiens, SW 954;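 note: growth inhibition of SW954 human cancer cells, read out as cell viability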
Description: SANGER: Inhibition of human SW954 cell growth in a cell viability assay.

ES8 = type: functional, cell-based, Homo sapiens; conditions: Homo sapiens, ES8;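 note: growth inhibition of human ES8 cells, read out with a cell viability assay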
Description: SANGER: Inhibition of human ES8 cell growth in a cell viability assay.

ESS-1 = type: functional, cell-based, Homo sapiens; conditions: Homo sapiens, ESS-1;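 note: growth inhibition of human ESS-1 cells, read out by a cell viability assay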
Description: SANGER: Inhibition of human ESS-1 cell growth in a cell viability assay.

Daoy = type: functional, cell-based, Homo sapiens; conditions: Homo sapiens, Daoy;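 note: daoy cell growth inhibition, read out as cell viability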
Description: SANGER: Inhibition of human Daoy cell growth in a cell viability assay.

SK-MEL-30 = type: functional, cell-based; conditions: Homo sapiens;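 note: growth inhibition of SK-MEL-30 cells, determined with a cell viability assay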
Description: SANGER: Inhibition of human SK-MEL-30 cell growth in a cell viability assay.

NB17 = type: functional, cell-based; conditions: Homo sapiens;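 note: growth inhibition of NB17 cells, read out with a cell viability assay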
Description: SANGER: Inhibition of human NB17 cell growth in a cell viability assay.

IST-MES1 = type: functional, cell-based, Homo sapiens; conditions: Homo sapiens, IST-MES1;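 note: growth inhibition of IST-MES1 cells, measured with a cell viability assay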
Description: SANGER: Inhibition of human IST-MES1 cell growth in a cell viability assay.

TE-8 = type: functional, cell-based, Homo sapiens; conditions: Homo sapiens, TE-8;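 note: growth inhibition of TE-8 cells, measured with a cell viability readout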
Description: SANGER: Inhibition of human TE-8 cell growth in a cell viability assay.

UMUC3 = type: functional, cell-based, Homo sapiens; conditions: Homo sapiens, UMUC3;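 note: growth inhibition of human UM-UC-3 cells, read out with a cell viability assay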
Description: SANGER: Inhibition of human UM-UC-3 cell growth in a cell viability assay.

RKO = type: functional, cell-based, Homo sapiens; conditions: Homo sapiens, RKO;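 note: growth inhibition of human RKO cells, read out with a cell viability assay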
Description: SANGER: Inhibition of human RKO cell growth in a cell viability assay.

Calu-3 = type: functional, cell-based, Homo sapiens; conditions: Homo sapiens, Calu-3;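 note: growth inhibition of human Calu-3 cells, determined with a cell viability assay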
Description: SANGER: Inhibition of human Calu-3 cell growth in a cell viability assay.

MSTO-211H = type: functional, cell-based, Homo sapiens; conditions: Homo sapiens, MSTO-211H
Description: SANGER: Inhibition of human MSTO-211H cell growth in a cell viability assay.

KP-4 = type: functional, cell-based, Homo sapiens; conditions: Homo sapiens, KP-4; read-out: IC50;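 note: human KP-4 cells, with growth inhibition read out through a cell viability assay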
Description: SANGER: Inhibition of human KP-4 cell growth in a cell viability assay.

BEN = type: functional, cell-based, Homo sapiens; conditions: Homo sapiens, BEN;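 note: growth inhibition of the BEN cell line, read out with a cell viability assay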
Description: SANGER: Inhibition of human BEN cell growth in a cell viability assay.

HCE-T = type: functional, cell-based, Homo sapiens; conditions: Homo sapiens, HCE-T;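 note: cell viability assay read-out, reporting inhibition of HCE-T cell growth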
Description: SANGER: Inhibition of human HCE-T cell growth in a cell viability assay.

COR-L88 = type: functional, cell-based; conditions: Homo sapiens;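 note: growth inhibition of COR-L88 cells, read out with a cell viability assay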
Description: SANGER: Inhibition of human COR-L88 cell growth in a cell viability assay.

DK-MG = type: functional, cell-based, Homo sapiens; conditions: Homo sapiens, DK-MG;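 note: growth inhibition of DK-MG cells, read out with a cell viability assay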
Description: SANGER: Inhibition of human DK-MG cell growth in a cell viability assay.

CP66-MEL = type: functional, cell-based, Homo sapiens; conditions: Homo sapiens, CP66-MEL;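 note: growth inhibition of CP66-MEL cells determined in a cell viability assay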
Description: SANGER: Inhibition of human CP66-MEL cell growth in a cell viability assay.

EC-GI-10 = type: functional, cell-based, Homo sapiens; conditions: Homo sapiens, EC-GI-10
Description: SANGER: Inhibition of human EC-GI-10 cell growth in a cell viability assay.

HOP-62 = type: functional, cell-based, Homo sapiens; conditions: Homo sapiens, HOP-62;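 note: cell growth inhibition determined with a viability assay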
Description: SANGER: Inhibition of human HOP-62 cell growth in a cell viability assay.

Measured: IC50

O=C1N=C(NCc2cccs2)S/C1=C\c1ccc2ncccc2c1
2.74 µM: UMUC3
1.64 µM: U-251
3.48 µM: COR-L88
4.11 µM: PSN1
1.91 µM: ALL-PO
not listed: CP66-MEL | EC-GI-10 | HOP-62
> 5 µM: all other assays above

COc1ccc(C2=N[C@@H](c3ccc(Cl)cc3)[C@@H](c3ccc(Cl)cc3)N2C(=O)N2CCNC(=O)C2)c(OC(C)C)c1 [NUTLIN-3]
6.56 µM: SW 954
7.89 µM: KM-H2
2.62 µM: DK-MG
6.79 µM: LS-513
4.41 µM: IST-MES1
3.51 µM: SW982
6.76 µM: AM-38
4.32 µM: NB17
2.57 µM: MSTO-211H
3.54 µM: RKO
not listed: CP66-MEL | EC-GI-10 | HOP-62
> 8 µM: all other assays above

Cc1cnc(-c2cnc(NCCNc3ccc(C#N)cn3)nc2-c2ccc(Cl)cc2Cl)[nH]1 [LADUVIGLUSIB]
0.214 µM: SW982
not listed: NB17
> 2.56 µM: all other assays above
